Counter-ions that a name gives are not always drawn.
What was measured:
[1] = target: T1, HER2 intracellular domain (Homo sapiens, UniProt P04626); test: Determination of HER2 kinase inhibitory activity; type: biochemical; settings: test compound at 1.0 μM, poly-Glu:Tyr (4:1) substrate, [γ-32P]ATP, 25° C. 10 min; for inhibition at 1 µM: read-out: Inhibitory rate (%) at 1.0 μM
T1 construct: made in house; host or cells: SF-21 insect cells infected with recombinant baculovirus BAC-HER2 (pFASTBAC1)
T1 sequence (P04626 676-1255 limits assumed): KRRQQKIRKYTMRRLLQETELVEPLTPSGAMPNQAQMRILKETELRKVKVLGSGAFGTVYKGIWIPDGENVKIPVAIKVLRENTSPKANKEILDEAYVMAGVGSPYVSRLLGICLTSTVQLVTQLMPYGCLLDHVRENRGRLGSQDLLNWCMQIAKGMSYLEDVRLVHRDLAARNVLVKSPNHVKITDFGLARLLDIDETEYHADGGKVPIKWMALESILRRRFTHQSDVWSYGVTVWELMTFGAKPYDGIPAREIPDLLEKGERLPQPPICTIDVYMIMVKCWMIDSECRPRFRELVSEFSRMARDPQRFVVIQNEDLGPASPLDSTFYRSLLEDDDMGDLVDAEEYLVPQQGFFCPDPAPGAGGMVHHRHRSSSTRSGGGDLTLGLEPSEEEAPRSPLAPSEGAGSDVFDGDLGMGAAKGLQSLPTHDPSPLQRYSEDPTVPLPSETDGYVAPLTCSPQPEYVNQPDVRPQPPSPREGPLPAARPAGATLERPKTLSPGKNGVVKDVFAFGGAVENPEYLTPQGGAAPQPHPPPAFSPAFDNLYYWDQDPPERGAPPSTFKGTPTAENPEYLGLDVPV
Procedure: Human HER2 gene was cloned by RT-PCR using total RNA prepared from MCF7 cells as a template. The primer used for RT-PCR was prepared from nucleotide sequence (Genbank Accession No. M11730) information of HER2 gene by adding a nucleotide sequence encoding DYKDDDD peptide and a restriction enzyme recognition sequence to a nucleotide sequence (2176-3918 of Genbank Accession No. M11730) encoding the HER2 intracellular domain region, so that the protein contains an N-terminal DYKDDDD peptide tag. The primer nucleotide sequence is shown below.
The RT reaction was conducted using SuperScript First-Strand Synthesis System for RT-PCR (Invitrogen) and the PCR reaction was conducted using a KOD-plus kit (TOYOBO). The obtained PCR product was electrophoresed on agarose gel (1%), the DNA fragment amplified by PCR was recovered from the gel, and then digested with restriction enzymes Sal I and Sph I. The DNA treated with the restriction enzymes was electrophoresed on agarose gel (1%), and the obtained DNA fragment was recovered and ligated to plasmid pFASTBAC1 (Invitrogen) digested with restriction enzymes Sal I and Sph I to give expression plasmid pFB-HER2. The nucleotide sequence of the insertion fragment was confirmed and found to be identical with the nucleotide sequence (2176-3918 of Genbank Accession M11730) of HER2 intracellular domain. Furthermore, using BAC-TO-BAC Baculovirus Expression System (Invitrogen), recombinant baculovirus BAC-HER2 was prepared.
SF-21 cells were sown at 1×10^6 cells/mL to Sf-900II SFM medium (1 L, Invitrogen) containing 10% fetal bovine serum (trace), 50 mg/L gentamicin (Invitrogen) and 0.1% Pluronic F-68 (Invitrogen), and shaking culture was performed using a 2 L volume Erlenmeyer flask at 27° C., 100 rpm. After culturing for 24 hr, recombinant baculovirus BAC-HER2 (13.4 mL) was added, and the mixture was further cultured for 3 days. The culture medium was centrifuged at 2,000 rpm for 5 min. to give virus-infected cells. The infected cells were washed with a phosphate buffered saline (Invitrogen), centrifuged under the same conditions, and the cells were preserved at −80° C. The cryopreserved cells were thawed in ice, suspended in buffer A (50 mM Tris buffer (30 mL, pH 7.4) containing 20% glycerol, 0.15 M NaCl) supplemented with Complete Protease Inhibitor (Boehringer), and ruptured 3 times with a Polytron homogenizer (Kinematica) at 20,000 rpm for 30 sec. The rupture medium was clarified by centrifugation at 40,000 rpm for 30 min. and filtered with a 0.45 μm filter. The filtrate was passed through a column packed with Anti-FLAG M2 Affinity Gel (4 mL, Sigma) at a flow rate of about 0.5 mL/min. The column was washed with buffer A, and eluted with buffer A containing 100 μg/mL of FLAG peptide. The eluate was concentrated with Vivaspin 20 (Vivascience) having a molecular weight cut off of 30K. The concentrate was purified by gel filtration using Hi Load Superdex 200pg 16/60 (Amersham Bioscience) equilibrated with buffer A. The fractions containing HER2 intracellular domain were collected, glycerol was added to the final concentration of 50% and cryopreserved at −80° C.
A test compound dissolved in dimethyl sulfoxide (DMSO) was diluted with a buffer for kinase reaction (50 mM Tris-HCl (pH7.5), 5 mM MgCl2, 5 mM MnCl2, 2 mM dithiothreitol, 0.01% Tween-20). To this compound solution (10 μL) was added a buffer for kinase reaction (20 μL) containing 5 μg/mL of HER2 intracellular domain obtained in Experimental Example 1B and 12.5 μg/mL of polypeptide substrate poly-Glu:Tyr (4:1) (Sigma). To the obtained mixture was added 20 μL of ATP solution (1.25 μM ATP, 0.05 μCi [γ-^32P]ATP), the mixture was allowed to react at 25° C. for 10 min. and the reaction was quenched with 50 μL of 20% TCA solution. The reaction solution was allowed to stand at 4° C. for 20 min., and the acid insoluble fraction was transferred to GF/C filter (PerkinElmer) using cell harvester (PerkinElmer) and washed with 250 mM phosphoric acid solution. […]

[2] = test system: human breast cancer cell BT-474; test: Inhibitory action on breast cancer cell BT-474 proliferation in vitro; type: cell-based; settings: 120 h, BT-474 cells, cultured 5 days with compound, SRB staining of cell protein
Procedure: A suspension of human breast cancer cell. BT-474 (100 μl (6,000 cells)) were seeded to attach in a 96-well microplate and cultured in an incubator (37° C., 5% carbon dioxide). On the following day, 100 μl of a solution of each test compound previously diluted serially in 2-fold, was added to give indicated dose, and the cells were cultured for 5 days. After the culture medium containing the test compound was removed, the cells were washed and fixed with 50% trichloroacetic acid, after which a 0.4% (w/v) SRB solution (dissolved in 1% acetic acid) was added to stain the cell protein (Skehan et al., Journal of the National Cancer Institute, Vol. 82, pp. 1107-1112, 1990). After washing with a 1% acetic acid solution, 100 μl of Tris solution (10 mM) was added to extract the pigment and the absorbance was measured at a wavelength of 550 nm to quantify the amount of cells as protein content. Taking as 100% the protein content for the control group, which received no test compound solution, the ratio of the residual protein content for, each treatment group was determined, and the compound concentration required to achieve 50% suppression of the residual cell content relative to the control (IC50 value) was calculated.

With `O=C(Nc1cccc(Oc2ccc(Nc3ncnc4ccn(CCOCCO)c34)cc2Cl)c1)C1CC1` [Example C-45, N-{3-[2-chloro-4-({5-[2-(2-hydroxyethoxy)ethyl]-5H-pyrrolo[3,2-d]pyrimidin-4-yl}amino)phenoxy]phenyl}cyclopropanecarboxamide] the inhibition at 1 µM [1] was 97% and the IC50 [2] was < 100 nM.
In the case of `CC(C)(C)NC(=O)c1cccc(Oc2ccc(Nc3ncnc4ccn(CCO)c34)cc2Cl)c1` [Example C-26, N-(tert-butyl)-3-(2-chloro-4-{[5-(2-hydroxyethyl)-5H-pyrrolo[3,2-d]pyrimidin-4-yl]amino}phenoxy)benzamide], the inhibition at 1 µM [1] is reported as 98%.
`CC(C)(C(=O)NCCn1ccc2ncnc(Nc3ccc(Oc4cccc(Cl)c4)c(Cl)c3)c21)S(C)(=O)=O` [Example A-1, N-[2-(4-{[3-chloro-4-(3-chlorophenoxy)phenyl]amino}-5H-pyrrolo[3,2-d]pyrimidin-5-yl)ethyl]-2-methyl-2-(methylsulfonyl)propanamide] was tested, and the inhibition at 1 µM [1] was 98% and the IC50 [2] was < 100 nM.
With `CS(=O)(=O)CC(=O)NCCn1ccc2ncnc(Nc3ccc(Oc4cccc(OCC5CC5)c4)c(Cl)c3)c21` [Example C-97, N-{2-[4-({3-chloro-4-[3-(cyclopropylmethoxy)phenoxy]phenyl}amino)-5H-pyrrolo[3,2-d]pyrimidin-5-yl]ethyl}-2-(methylsulfonyl)acetamide hydrochloride] the IC50 [2] was < 100 nM.
For `CC(C)(C)CC(=O)c1cccc(Oc2ccc(Nc3ncnc4ccn(CCO)c34)cc2Cl)c1` [Example E-22, 1-[3-(2-chloro-4-{[5-(2-hydroxyethyl)-5H-pyrrolo[3,2-d]pyrimidin-4-yl]amino}phenoxy)phenyl]-3,3-dimethylbutan-1-one], the inhibition at 1 µM [1] was 99%.
With `OCCOCCn1ccc2ncnc(Nc3cnc(Oc4cccc(C(F)(F)F)c4)c(Cl)c3)c21` [Example B-1, 2-{2-[4-({5-chloro-6-[3-(trifluoromethyl)phenoxy]pyridin-3-yl}amino)-5H-pyrrolo[3,2-d]pyrimidin-5-yl]ethoxy}ethanol] the inhibition at 1 µM [1] was 99%.
`CC(C)(C)NC(=O)Cc1cccc(Oc2ccc(Nc3ncnc4ccn(CCO)c34)cc2Cl)c1` [Example C-89, N-(tert-butyl)-2-[3-(2-chloro-4-{[5-(2-hydroxyethyl)-5H-pyrrolo[3,2-d]pyrimidin-4-yl]amino}phenoxy)phenyl]acetamide] was tested, and the inhibition at 1 µM [1] was 100%.
In the case of `CC(C)(C(=O)NCCn1ccc2ncnc(Nc3ccc(Oc4cccc(Cl)c4)c(Cl)c3)c21)S(C)(=O)=O.Cc1ccc(S(=O)(=O)O)cc1` [Example A-15, N-[2-(4-{[3-chloro-4-(3-chlorophenoxy)phenyl]amino}-5H-pyrrolo[3,2-d]pyrimidin-5-yl)ethyl]-2-methyl-2-(methylsulfonyl)propanamide p-toluenesulfonate], the “Inhibitory rate (%) at 1.0 μM” value [1] is reported as 99%.
For `CC(C)(C)NC(=O)c1cccc(Cn2ncc3cc(Nc4ncnc5ccn(CCO)c45)ccc32)c1` [Example G-14, N-(tert-butyl)-3-[(5-{[5-(2-hydroxyethyl)-5H-pyrrolo[3,2-d]pyrimidin-4-yl]amino}-1H-indazol-1-yl)methyl]benzamide], the inhibition at 1 µM [1] was 100%.
With `CC(C)(O)CC(=O)NCCn1ccc2ncnc(Nc3ccc4c(cnn4Cc4cccc(F)c4)c3)c21` [Example G-5, N-[2-(4-{[1-(3-fluorobenzyl)-1H-indazol-5-yl]amino}-5H-pyrrolo[3,2-d]pyrimidin-5-yl)ethyl]-3-hydroxy-3-methylbutanamide] the inhibition at 1 µM [1] was 93% and the IC50 [2] was < 100 nM.
In the case of `Cc1cc(Nc2ncnc3ccn(CCNC(=O)CS(C)(=O)=O)c23)ccc1Oc1cccc(OCC(F)(F)F)c1` [Example C-116, 2-(methylsulfonyl)-N-{2-[4-({3-methyl-4-[3-(2,2,2-trifluoroethoxy)phenoxy]phenyl}amino)-5H-pyrrolo[3,2-d]pyrimidin-5-yl]ethyl}acetamide hydrochloride], the IC50 [2] is reported as < 100 nM.

Reference: patent publication US20100216788A1, “FUSED HETEROCYCLIC COMPOUND” (TAKEDA PHARMACEUTICAL COMPANY LIMITED, priority 2005, published 2010)
